Data on one molecule can be found in patent publication US6218378A, “Anti-tumor agents comprising pyridyl-substituted metal-diphosphine complex” (priority 1994, dated 2001).

The test system of one data set is CI-80-13S. As to the kind of experiment: cell survival after drug treatment ([methyl-3H]-thymidine). The data set is classed as cell-based, human. An excerpt: (§1) In FIGS. 1-4 and Table 1, reference is made to the cell lines HeLa, HeLa-S1a, JAM, CI-80-13S and MM96.
(§2) The origins of the human melanoma cell line MM96 has been described in Whitehead et al., 1973, Pigment Cell 1 383-389. The cell line JAM is described in Ward et al., 1987, Cancer Res. 47 2662-2667. The origin of the ovarian tumour line CI-80-13S has been described in Bertoncello et al., 1985, Aust. J. Exp. Biol. Med. Sci. 63 241-243. The origin of the cervical carcinoma cell line HeLa has been described in Maynard et al., 1986, Cancer Res. 46 5009-5093. The subclone HeLa-S1a was derived by stably transfecting HeLa with PAI-2 cDNA described in Schleuning et al., 1987, Mol. Cell. Biol. 7 4564-4567 in the sense orientation under the control of the cyto-megalovirus (CMV) promoter. The stably infected subclone was isolated following G418 selection and expression of the PAI-2 transgene characterised by immunoblot analysis and quantitated by ELISA. All of these cell lines have been used before for carrying out cell survival assays referred to in FIGS. 1-4. Cells were cultured at 37° in 5% CO2 /air in Roswell Park Memorial Institute medium 1640 containing 5% foetal calf serum, 100 μg/ml streptomycin, 100 IU/ml penicillin, 1 mM pyruvate, 50 μM nicotinamide and 3 mM HEPES.
(§3) Cells were seeded in microtitre plates (lowest number for fastest growing cells: 1000 HeLa, 2000 MM96, […] CI-80-13S cells per 6 mm well in 100 μl), normally but not necessarily allowed to attach overnight, then 5 dilutions of the drug were added to duplicate wells. After an overnight incubation to equilibrate the pH, the lids were quickly taped around the edge to prevent evaporation. The plates were incubated for 5-7 days, until the controls were nearly confluent. Cell growth/morphology was scored at each dose visually (inverted microscope). The medium was then replaced by 50 μl fresh medium containing 2 u/Ci/ml [methyl-3H]-thymidine (5 Ci/mmol; Radiochemical Centre, Amersham, Bucks., U.K.) and incubated for 2-4 hr. The cells were washed with PBS (0.1 M NaCl, 50 mM phosphate, pH 7.2), detached with 100 μl of PBS containing 0.2 mg/ml trypsin and 10 mM EDTA, and washed onto a glass fibre GF/a filter mat with water using a cell harvester. Later, wells were checked under the microscope to ensure complete detachment and washout. Radioactivity was determined in an LKB Beta Plate counter and the results plotted as log % control cpm versus dose. The ID50 (dose required to give 50% survival) was interpolated from this survival curve.

Another data set has as its system HeLa-S1a. The data set is described as above. The format is cell-based, human.
Excerpt: as §1, §2, §3

The next data set deals with HeLa. The data set is described as above. The data set is classed as cell-based, human.
Excerpt: as §1, §2, §3

The subject of another data set is MM96. Described as above. The format is cell-based, human.
Excerpt: as §1, §2, §3

The test system of a further data set is 41M-cisR. As to the kind of experiment: cytotoxicity assay, sulforhodamine B. The note with it: 96 hrs, mean ± SD or individual values when n<3. The format is cell-based, human. As for the experimental part: (§4) In Table 2, reference is made to cell lines 41M, 41M-cisR, SKOV-3, CH1 and CH1-cisR.
(§5) J. Cancer 69 1-7. The characteristics of the cell line pairs CH1/CH1 cisR, 41M/41McisR and 41M/SKOV3 are described in Table 3.
(§6) The cytotoxicity assay used sulforhodamine B which stains the basic amino acids. Cells (5000 or 2500 for SKOV-3) were seeded into 96 well microtitre plates (Linbro, Flow Laboratories Inc., USA) in 0.1 ml of medium. After an overnight incubation, the metal phosphine compounds were dissolved in 0.9% NaCl or ethanol and diluted with medium, were added at concentrations ranging from 0.005 to 50 μM to quadruplicate wells. After 96 hrs incubation, the medium was removed and cells were fixed in 0.2 ml of cold 10% (w/v) trichloroacetic acid (May & Baker Ltd., Dagenham, England) for 30 mins at 4° C. The plates were washed five times with tap water. Then 0.1 ml of 0.4% (w/v) sulforhodamine B (Sigma Chemical Co., St. Louis, USA) dissolved in 1% acetic acid (Ajax Chemicals, Australia) was added to the wells and left to stand at room temperature for 15 mins. The plates were then washed five times with 1% acetic acid and left to dry overnight. The next morning, 0.1 ml of 10 mM Tris buffer (Sigma Chemical Co., St. Louis, USA) was then added to each plate to solubilise the dye. Absorbance was read at a wavelength of 570 nm using a 96 well plate reader Dynatech MR 5000 plate reader. Absorbance of treatment cells was expressed as a percentage of positive (drug-free) controls. The results were plotted as percentage growth versus drug concentration.

For a further data set, the system named is 41M. As to the kind of experiment: cytotoxicity assay, sulforhodamine B. As to conditions: 96 hrs, mean ± SD or individual values when n<3. The format is cell-based, human. As for the experimental part: as §4, §5, §6
In another data set the test system is CH1-cisR. As to the kind of experiment: cytotoxicity assay, sulforhodamine B. The note with it: 96 hrs, mean ± SD or individual values when n<3. The data set is classed as cell-based, human. Here is the method: as §4, §5, §6
For another data set, the system named is CH1. As to the kind of experiment: cytotoxicity assay, sulforhodamine B. The note with it: 96 hrs, mean ± SD or individual values when n<3. The data set is classed as cell-based, human. As for the experimental part: as §4, §5, §6
The test system of the next data set is SKOV-3. Briefly: cytotoxicity assay, sulforhodamine B. As to conditions: 96 hrs, mean ± SD or individual values when n<3. The data set is classed as cell-based, human. Here is the method:
as §4, §5, §6

The next data set concerns tumour models in mice. The note with it: reference EP0198696; cited from earlier work.
A further data set relates to P388 leukaemia. As to conditions: i.p. P388 leukaemia; Berners-Price et al. 1990; cited from earlier work.
Data set [1] relates to M5076 Reticulum Cell Sarcoma. As to conditions: Berners-Price et al. 1990; cited from earlier work.

A word on the IC50: it is the concentration needed to halve the response being measured. High values mean weaker potency, low ones greater potency. Regarding `[Cl-].c1cc([P+]2(c3ccncc3)CC[P+](c3ccncc3)(c3ccncc3)[Au-3]23[P+](c2ccncc2)(c2ccncc2)CC[P+]3(c2ccncc2)c2ccncc2)ccn1` [[Au(d4pype)2]Cl], the “cytotoxicity (FIGS. 1 and 2)” value was “selectively cytotoxic” in the data set with CI-80-13S (CI-80-13S ovarian in vitro), “selectively cytotoxic” with HeLa-S1a (HeLa-S1a in vitro), “inactive” in the data set with HeLa (HeLa cervical carcinoma in vitro) and “inactive” with MM96 (MM96 melanoma in vitro). The IC50 is 0.32 ± 0.15 µM in the data set with CI-80-13S (CI-80-13S, mean ± SD or individual values when n<3, 5-7 days); 0.3 µM in the data set with HeLa-S1a (HeLa-S1a, mean ± SD or individual values when n<3, 5-7 days); over 10 µM in the data set with HeLa (HeLa, mean ± SD or individual values when n<3, 5-7 days); over 10 µM in the data set with MM96 (MM96L, mean ± SD or individual values when n<3, 5-7 days); over 100 µM in the data set on 41M-cisR; over 100 µM with 41M. The IC50 in the data set on CH1-cisR is 0.6 ± 0.2 µM; with CH1, 0.4 ± 0.1 µM; in the data set on SKOV-3 it was over 100 µM. Also, in the data set on tumour models in mice, the “anti-tumour activity (EP0198696)” value is “insignificant anti-tumour activity”. The activity in mice entry (in the data set with P388 leukaemia; in data set [1]) was “inactive” each time.
